# Experiments:
# GRMD dogs [1] = test: Cranial sartorius (CS) circumference, GRMD dogs; type: in vivo, dog; conditions: age 6 months, NBD 10 mg/kg IV 3x weekly for 4 months, n = 6
# Description: We have previously shown that the CS muscle undergoes dramatic hypertrophy in GRMD dogs and that this hypertrophy tracks with postural abnormalities. Accordingly, we use CS circumference measured at surgery during routine biopsy as a surrogate for muscle hypertrophy and associated postural changes in GRMD [24]. Dogs were anesthetized (above), and an incision was made over the cranial aspect of the thigh. In advance of biopsy, the CS muscle was isolated. Nylon suture was placed around the muscle at approximately midsection and tightened so as to snugly encircle the muscle belly. The two ends of the suture were secured with a pair of hemostats and then cut on the muscle side of the hemostat. The length in mm was divided by body mass in kg (mm/kg). An average of two measurements was recorded.
# [2] = dog, in vivo, iv, 10 mg/kg
# Procedure: In addition to efficacy, we were interested in examining the safety profile of NBD, since long-term dosing in any animal model had yet to be performed. Blood samples at pre-dose, mid dose, and terminal dose were obtained for hematology and serum chemistry analysis. […] Supplementary file 2044-5040-4-18-S2.jpeg: Additional file 2: Figure S2 Hematologic changes in NBD-treated dogs. Serum was prepared from blood samples obtained at indicated time points prior to and following dosing with NBD in wild type and GRMD dogs. Serum samples were analyzed for complete blood counts (CBC). The graphs show results for white blood cells, red blood cells, and platelet counts. Click here for file Supplementary file 2044-5040-4-18-S3.jpeg: Additional file 3: Figure S3 Clinicopathologic changes in NBD-treated dogs. Serum was prepared from blood samples obtained at indicated time points prior to and following dosing with NBD in wild type and GRMD dogs. Serum samples were analyzed for ALT, AST, GGT, bilirubin, creatinine, potassium, and creatine kinase. Click here for file
# GRMD dogs [3] = test: MRI of proximal pelvic limb muscles, GRMD dogs; type: in vivo, dog; design: MRI T2 mapping value: unit not given here; conditions: 6 months, NBD 10 mg/kg IV 3x weekly for 4 months, n = 6
# Description: Studies were done on a Siemens 3 T Allegra Head-Only MRI scanner with a circular polarization (CP) head coil or Siemens 3 T Tim Trio Whole-Body MRI scanner with a 32-channel body coil at the UNC-CH Biomedical Research Imaging Center (BRIC). Dogs were anesthetized (above), placed on an MRI gantry in the sternal (prone) position with the pelvic limbs extended, and positioned in the coil centered at the midpoint of the femur. The proximal pelvic limbs from the coxofemoral joint to the stifle were imaged bilaterally. Scans were completed using a published protocol. T2-weighted image sequences without (T2w) and with fat saturation (T2fs) were acquired using a variable-flip-angle turbo spin echo (TSE) sequence. The time between the excitation pulse and the center of k-space was 400 ms. Importantly, the contrast was not determined only by the TE (400 ms), but also by the flip angle evolution scheme. Although a traditional TSE sequence would have very little signal at 400 ms, the variable flip angle sequence is similar in principle to hyper-echo. The hyper-echo reduces the specific absorption rate (SAR), while the variable flip angle sequence allows long TE times. A multi-spin-echo T2 (MSE-T2), using a 10-echo Carr-Purcell-Meiboom-Gill sequence, was acquired to calculate the T2 value map. Analysis of the images was completed in three modules: muscle segmentation, pre-processing, and biomarker analysis. As a prerequisite, we first segmented the major proximal pelvic limb muscles in the MRI images. All proximal pelvic limb muscles were segmented but only five slices at the midfemur were analyzed and averaged.
# For the sake of this study, the biomarker analysis was limited to muscle volumes, T2 mapping values, and several texture analysis features, including a first-order intensity histogram texture feature (entropy) and two high order run length matrix features (short run emphasis (SRE) and run length non-uniformity (RLN)). These texture analysis features were assessed as potential markers of patchy lesions such as necrosis. Based on the mathematical model, we refer to short run emphasis as the Small Lesion Index (SLI) and non-uniformity as the Heterogeneity Index (HI). Both SLI and HI use the run-length matrix method. Compared to histogram-based biomarkers that use intensity data only, the run-length matrix method also takes into account the spatial distribution and intensity of the voxels. A gray-level ‘run’ is defined as a set of consecutive voxels of similar intensity level in a given direction within a predefined similarity range. This is run in a three-dimensional matrix and is intended to detect lumps of hyper-intensity in MRI. To determine overall muscle scores for T2 and the texture features in each group, the proportional muscle volume was considered, so as to calculate a weighted average.
# mdx mice = conditions: cited from earlier work
# Description: […] […] Our ability to collectively achieve such a benefit in GRMD dogs, as well as in mdx diaphragm, [9, 13] and dko hearts, supports the pre-clinical efficacy of NBD. Due to interspecies differences among mice, dogs, and humans, it is difficult to say e ...
sequence,measurement,setting,value
"TALDWSWLQTE [NBD, NBD peptide (…) fused to an Antennapedia protein transduction domain]",CS Circumference,GRMD dogs [1],3.67 ± 0.65 mm/kg
same,Hematology and serum chemistry analysis,[2],no adverse effects
same,"MRI HI (Heterogeneity Index, run length non-uniformity)",GRMD dogs [3]; Adductor,116.2 ± 22.37
same,"MRI SLI (Small Lesion Index, short run emphasis)",GRMD dogs [3]; Adductor,0.72 ± 0.02
same,MRI T2 mapping value,GRMD dogs [3]; Adductor,39.52 ± 4.76
same,"MRI HI (Heterogeneity Index, run length non-uniformity)",GRMD dogs [3]; All muscles (weighted average),86.01 ± 18.28
same,"MRI SLI (Small Lesion Index, short run emphasis)",GRMD dogs [3]; All muscles (weighted average),0.70 ± 0.04^^
same,MRI T2 mapping value,GRMD dogs [3]; All muscles (weighted average),47.34 ± 3.10^^
same,"MRI HI (Heterogeneity Index, run length non-uniformity)",GRMD dogs [3]; Biceps Femoris,87.50 ± 48.42
same,"MRI SLI (Small Lesion Index, short run emphasis)",GRMD dogs [3]; Biceps Femoris,0.68 ± 0.06^^
same,MRI T2 mapping value,GRMD dogs [3]; Biceps Femoris,40.20 ± 4.91^^
same,"MRI HI (Heterogeneity Index, run length non-uniformity)",GRMD dogs [3]; Caudal Sartorius,35.21 ± 14.92
same,"MRI SLI (Small Lesion Index, short run emphasis)",GRMD dogs [3]; Caudal Sartorius,0.83 ± 0.05
same,MRI T2 mapping value,GRMD dogs [3]; Caudal Sartorius,53.87 ± 9.88
same,"MRI SLI (Small Lesion Index, short run emphasis)",GRMD dogs [3]; Cranial Sartorius,0.79 ± 0.05
same,MRI T2 mapping value,GRMD dogs [3]; Cranial Sartorius,49.40 ± 9.01
same,"MRI HI (Heterogeneity Index, run length non-uniformity)",GRMD dogs [3]; Gracilis,58.90 ± 30.66
same,"MRI SLI (Small Lesion Index, short run emphasis)",GRMD dogs [3]; Gracilis,0.70 ± 0.06^^
same,MRI T2 mapping value,GRMD dogs [3]; Gracilis,45.91 ± 3.50
same,"MRI HI (Heterogeneity Index, run length non-uniformity)",GRMD dogs [3]; Rectus Femoris,55.42 ± 21.95
same,"MRI SLI (Small Lesion Index, short run emphasis)",GRMD dogs [3]; Rectus Femoris,0.68 ± 0.07^^
same,MRI T2 mapping value,GRMD dogs [3]; Rectus Femoris,37.23 ± 4.72
same,"MRI HI (Heterogeneity Index, run length non-uniformity)",GRMD dogs [3]; Semimembranosus,78.15 ± 33.31
same,"MRI SLI (Small Lesion Index, short run emphasis)",GRMD dogs [3]; Semimembranosus,0.68 ± 0.06
same,MRI T2 mapping value,GRMD dogs [3]; Semimembranosus,39.42 ± 4.86
same,"MRI HI (Heterogeneity Index, run length non-uniformity)",GRMD dogs [3]; Semitendinosus,81.43 ± 35.00
same,"MRI SLI (Small Lesion Index, short run emphasis)",GRMD dogs [3]; Semitendinosus,0.67 ± 0.08^^
same,MRI T2 mapping value,GRMD dogs [3]; Semitendinosus,40.41 ± 4.97^^
same,"MRI HI (Heterogeneity Index, run length non-uniformity)",GRMD dogs [3]; Vastus Intermedius,59.10 ± 27.19
same,"MRI SLI (Small Lesion Index, short run emphasis)",GRMD dogs [3]; Vastus Intermedius,0.68 ± 0.09
same,MRI T2 mapping value,GRMD dogs [3]; Vastus Intermedius,41.91 ± 5.91^^
same,"MRI HI (Heterogeneity Index, run length non-uniformity)",GRMD dogs [3]; Vastus Lateralis,52.92 ± 27.20
same,"MRI SLI (Small Lesion Index, short run emphasis)",GRMD dogs [3]; Vastus Lateralis,0.68 ± 0.04^^
same,MRI T2 mapping value,GRMD dogs [3]; Vastus Lateralis,40.67 ± 5.84^^
same,"MRI HI (Heterogeneity Index, run length non-uniformity)",GRMD dogs [3]; Vastus Medialis,52.55 ± 22.29
same,"MRI SLI (Small Lesion Index, short run emphasis)",GRMD dogs [3]; Vastus Medialis,0.77 ± 0.09
same,MRI T2 mapping value,GRMD dogs [3]; Vastus Medialis,42.74 ± 5.65
same,Efficacy on dose reduction,"mdx mice; IP 3x per week, concentrations of NBD reduced from 10 to 2 mg/kg",efficacy was lost
same,"Functional improvement, mdx diaphragm",mdx mice; NBD-treated mdx mice,43%

# Reference: publication PMC4364341, “NBD delivery improves the disease phenotype of the golden retriever model of Duchenne muscular dystrophy” (Skeletal Muscle, 2014)
